The source of these data is patent US9708325B2, “Sulfonimidoylpurinone compounds and derivatives for the treatment and prophylaxis of virus infection” (Hoffmann-La Roche Inc., priority 2015, dated 2017).

In brackets after ≈: the same amount, converted by molar mass. Like-named read-outs stand apart in the source and are kept apart here. Marks after values point to notes of the source that are not given here. Some results are limits rather than exact numbers.

The nature of data set [1]: Metabolic stability in human liver microsomes. As to conditions: 1 μM test compound, 0.5 mg/mL microsomal protein; 6.15 mL/min/kg is the limitation of assay sensitivity. How it is done:
The human microsomal stability assay is used for early assessment of metabolic stability of a test compound in human liver microsomes.
Human liver microsomes (Cat. NO.: 452117, Corning, USA; Cat. NO.: H2610, Xenotech, USA) were preincubated with test compound for 10 minutes at 37° C. in 100 mM potassium phosphate buffer, pH 7.4. The reactions were initiated by adding NADPH regenerating system. The final incubation mixtures contained 1 μM test compound, 0.5 mg/mL liver microsomal protein, 1 mM MgCL2, 1 mM NADP, 1 unit/mL isocitric dehydrogenase and 6 mM isocitric acid in 100 mM potassium phosphate buffer, pH 7.4. After incubation times of 0, 3, 6, 9, 15 and 30 minutes at 37° C., 300 μL of cold ACN (including internal standard) was added to 100 μL incubation mixture to terminate the reaction. Following precipitation and centrifugation, the amount of compound remaining in the samples were determined by LC-MS/MS. Controls of no NADPH regenerating system at zero and 30 minutes were also prepared and analyzed.

For the next data set, the target named is human TLR7 (Homo sapiens (Human), UniProt Q9NYK1). Put plainly: HEK-Blue-hTLR7 cells assay (SEAP reporter). Type of data set: cell-based. The note with it: 20 hrs. How it is done:
A stable HEK-Blue-hTLR7 cell line was purchased from InvivoGen (Cat.#: hkb-htlr7, San Diego, Calif., USA). These cells were designed for studying the stimulation of human TLR7 by monitoring the activation of NF-κB. […] Therefore the reporter expression was regulated by the NF-κB promoter upon stimulation of human TLR7 for 20 hrs. The cell culture supernatant SEAP reporter activity was determined using QUANTI-Blue™ kit (Cat.#: rep-qb1, Invivogen, San Diego, Ca, USA) at a wavelength of 640 nm, a detection medium that turns purple or blue in the presence of alkaline phosphatase.
HEK-Blue-hTLR7 cells were incubated at a density of 250,000˜450,000 cells/mL in a volume of 180 μL in a 96-well plate in Dulbecco's Modified Eagle's medium (DMEM) containing 4.5 g/L glucose, 50 U/mL penicillin, […], […], 2 mM L-glutamine, 10% (V/V) heat-inactivated fetal bovine serum for 24 hrs. Then the HEK-Blue-hTLR-7 cells were incubated with addition of 20 μL test compound in a serial dilution in the presence of final DMSO at 1% and perform incubation under 37° C. in a CO2 incubator for 20 hrs. Then 20 μL of the supernatant from each well was incubated with 180 μL Quanti-blue substrate solution at 37° C. for 2 hrs and the absorbance was read at 620˜655 nm using a spectrophotometer. The signalling pathway that TLR7 activation leads to downstream NF-κB activation has been widely accepted, and therefore similar reporter assay was also widely used for evaluating TLR7 agonist (Tsuneyasu Kaisho and Takashi Tanaka, Trends in Immunology, Volume 29, Issue 7, July 2008, […]; Hiroaki Hemmi et al, Nature Immunology 3, 196-200 (2002)).

A further data set in a line: LYSA solubility. Type of data set: physicochemical. The note with it: 0.05 M phosphate buffer, pH 6.5, aqueous buffer, thermodynamic from solid. How it is done: LYSA solubility assay is used to determine the aqueous solubility of a compound. Samples were prepared in duplicate from 10 mM DMSO stock solution. […] After one night, the solutions were filtered using a microtiter filter plate. Then the filtrate and its 1/10 dilution were analyzed by HPLC-UV.

The mark [2] stands for this setting: read-out: HEK-Blue-hTLR7 (EC50 (μM)).

What is called EC50 is the concentration needed to bring the measured effect to its halfway point. As usually defined, the thermodynamic solubility is solubility found after equilibrating the solid with the medium.

Chain of human TLR7 (Q9NYK1 27-1049): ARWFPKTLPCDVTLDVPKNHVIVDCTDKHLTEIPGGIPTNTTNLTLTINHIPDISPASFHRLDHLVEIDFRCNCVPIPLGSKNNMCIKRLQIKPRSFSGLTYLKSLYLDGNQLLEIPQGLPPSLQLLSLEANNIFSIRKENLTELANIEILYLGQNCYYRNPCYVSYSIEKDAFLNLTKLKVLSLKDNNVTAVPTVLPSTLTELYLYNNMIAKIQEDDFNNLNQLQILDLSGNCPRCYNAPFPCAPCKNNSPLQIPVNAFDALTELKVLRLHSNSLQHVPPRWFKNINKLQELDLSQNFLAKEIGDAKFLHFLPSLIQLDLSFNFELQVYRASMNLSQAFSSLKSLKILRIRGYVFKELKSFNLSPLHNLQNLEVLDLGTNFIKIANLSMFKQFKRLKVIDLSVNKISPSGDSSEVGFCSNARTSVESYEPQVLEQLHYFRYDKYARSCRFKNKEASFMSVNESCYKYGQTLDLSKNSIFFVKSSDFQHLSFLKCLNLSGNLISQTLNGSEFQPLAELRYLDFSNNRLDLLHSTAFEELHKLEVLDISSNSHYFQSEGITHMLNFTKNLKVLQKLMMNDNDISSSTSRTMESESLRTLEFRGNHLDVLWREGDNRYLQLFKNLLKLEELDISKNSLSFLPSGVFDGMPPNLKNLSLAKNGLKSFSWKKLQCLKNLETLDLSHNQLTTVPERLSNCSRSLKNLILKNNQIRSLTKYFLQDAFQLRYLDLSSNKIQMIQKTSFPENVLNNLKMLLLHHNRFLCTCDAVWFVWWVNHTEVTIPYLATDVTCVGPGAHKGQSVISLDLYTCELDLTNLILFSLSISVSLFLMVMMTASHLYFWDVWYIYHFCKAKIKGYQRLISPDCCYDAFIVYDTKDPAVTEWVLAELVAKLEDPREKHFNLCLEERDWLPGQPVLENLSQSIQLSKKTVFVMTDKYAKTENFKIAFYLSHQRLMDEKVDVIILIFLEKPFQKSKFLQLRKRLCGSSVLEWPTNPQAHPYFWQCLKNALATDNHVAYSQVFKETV

Consider `COCCS(=N)(=O)c1nc(N)c2[nH]c(=O)n(Cc3ccccc3)c2n1` (single isomer, unassigned) [Example 3-A, 6-Amino-9-benzyl-2-(2-methoxyethylsulfonimidoyl)-7H-purin-8-one], for which the “Human Liver Microsome Clearance” value in data set [1] is on record as below 6.15 mL/min/kg.
Turning to `COCCS(=N)(=O)c1nc(N)c2[nH]c(=O)n(Cc3ccccc3)c2n1` (single isomer, unassigned) [Example 3-B, 6-Amino-9-benzyl-2-(2-methoxyethylsulfonimidoyl)-7H-purin-8-one], at human TLR7 (HEK-Blue-hTLR7 (EC50 (μM))), the concentration for a half-maximal effect (EC50) stood at 0.55 µM.
Regarding `CCCS(=N)(=O)c1nc(N)c2[nH]c(=O)n(Cc3ccc(Cl)cc3)c2n1` (single isomer, unassigned) [Example 9-A, 6-Amino-9-[(4-chlorophenyl)methyl]-2-(propylsulfonimidoyl)-7H-purin-8-one], a half-maximal response at human TLR7 (HEK-Blue-hTLR7 (EC50 (μM))) (EC50) required 0.014 µM.
Regarding `CCCS(=N)(=O)c1nc(N)c2[nH]c(=O)n(Cc3ccc(Cl)cc3)c2n1` (single isomer, unassigned) [Example 9-B, 6-Amino-9-[(4-chlorophenyl)methyl]-2-(propylsulfonimidoyl)-7H-purin-8-one], the concentration giving a half-maximal response (EC50) on human TLR7 (HEK-Blue-hTLR7 (EC50 (μM))) is 0.011 µM.
Take `CS(=N)(=O)c1nc(N)c2[nH]c(=O)n(Cc3cccnc3)c2n1` (single isomer, unassigned) [Example 16-A, 6-Amino-2-(methylsulfonimidoyl)-9-(3-pyridylmethyl)-7H-purin-8-one]: the half-maximal effective concentration (EC50) on human TLR7 (HEK-Blue-hTLR7 (EC50 (μM))) is 0.76 µM.
Consider `CS(=N)(=O)c1nc(N)c2[nH]c(=O)n(Cc3cccnc3)c2n1` (single isomer, unassigned) [Example 16-B, 6-Amino-2-(methylsulfonimidoyl)-9-(3-pyridylmethyl)-7H-purin-8-one], for which the EC50 at human TLR7 (HEK-Blue-hTLR7 (EC50 (μM))) is 0.15 µM.
Turning to `CS(=N)(=O)c1nc(N)c2[nH]c(=O)n(Cc3ccccc3)c2n1` (stereo not shown) [Example 1, 6-Amino-9-benzyl-2-(methylsulfonimidoyl)-7H-purin-8-one], on human TLR7 (setting [2]), the EC50 turned out to be 0.3 µM. Besides, the “Human Liver Microsome Clearance (mL/min/kg)” value in data set [1] was <6.15* mL/min/kg.
As for `COCCCS(=N)(=O)c1nc(N)c2[nH]c(=O)n(Cc3ccccc3)c2n1` (stereo not shown) [Example 6, 6-Amino-9-benzyl-2-(3-methoxypropylsulfonimidoyl)-7H-purin-8-one], the EC50 at human TLR7 (setting [2]) worked out at 0.43 µM. The compound further returned a thermodynamic solubility in the data set “LYSA solubility” of 89 µg/mL (≈ 236 µM).
With `N=S(=O)(CC(F)(F)F)c1nc(N)c2[nH]c(=O)n(Cc3ccccc3)c2n1` (stereo not shown) [Example 7, 6-Amino-9-benzyl-2-(2,2,2-trifluoroethylsulfonimidoyl)-7H-purin-8-one], the EC50 at human TLR7 (setting [2]) came to 0.18 µM. This compound also showed a thermodynamic solubility in “LYSA solubility” of 18 µg/mL (≈ 46.6 µM).
Consider `COc1ccc(Cn2c(=O)[nH]c3c(N)nc(S(C)(=N)=O)nc32)cc1` (stereo not shown) [Example 10, 6-Amino-9-[(4-methoxyphenyl)methyl]-2-(methylsulfonimidoyl)-7H-purin-8-one], for which the EC50 on human TLR7 (setting [2]) worked out at 0.074 µM.
For `COc1ccc(Cn2c(=O)[nH]c3c(N)nc(S(=N)(=O)CCCCl)nc32)cc1` (stereo not shown) [Example 11, 6-Amino-2-(3-chloropropylsulfonimidoyl)-9-[(4-methoxyphenyl)methyl]-7H-purin-8-one], at human TLR7 (setting [2]), the EC50 is 0.066 µM. The solubility (thermodynamic) in “LYSA solubility” was 18 µg/mL (≈ 43.8 µM).
In the case of `CCCS(=N)(=O)c1nc(N)c2[nH]c(=O)n(Cc3ccccc3Cl)c2n1` (stereo not shown) [Example 15, 6-Amino-9-[(2-chlorophenyl)methyl]-2-(propylsulfonimidoyl)-7H-purin-8-one], at human TLR7 (setting [2]), the concentration for a half-maximal effect (EC50) amounted to 0.19 µM.
On to `CCCS(=N)(=O)c1nc(N)c2[nH]c(=O)n(Cc3cccc(C#N)c3)c2n1` (stereo not shown) [Example 17, 3-[[6-Amino-8-oxo-2-(propylsulfonimidoyl)-7H-purin-9-yl]methyl]benzonitrile], for which a half-maximal response on human TLR7 (HEK-Blue-hTLR7 (EC50 (μM))) (EC50) required 0.068 µM.
On to `CCCS(=N)(=O)c1nc(N)c2[nH]c(=O)n(Cc3cccc(C(N)=O)c3)c2n1` (stereo not shown) [Example 18, 3-[[6-amino-8-oxo-2-(propylsulfonimidoyl)-7H-purin-9-yl]methyl]benzamide], for which, on human TLR7 (setting [2]), the EC50 was determined as 0.047 µM. In the data set “LYSA solubility”, this compound showed a thermodynamic solubility of 166 µg/mL (≈ 426 µM).
For the compound `CS(=N)(=O)c1nc(N)c2[nH]c(=O)n(Cc3ccccn3)c2n1` (stereo not shown) [Example 19, 6-Amino-2-(methylsulfonimidoyl)-9-(2-pyridylmethyl)-7H-purin-8-one], the 50% effective concentration (EC50) at human TLR7 (setting [2]) was 0.67 µM. The solubility (thermodynamic) in “LYSA solubility” is above 428 µg/mL.
In turn, `CCCS(=N)(=O)c1nc(N)c2[nH]c(=O)n(CC(C)C)c2n1` (stereo not shown) [Example 21, 6-Amino-9-isobutyl-2-(propylsulfonimidoyl)-7H-purin-8-one] gave a solubility (thermodynamic) in “LYSA solubility” of 121 µg/mL (≈ 387 µM).
On to `CCCS(=N)(=O)c1nc(N)c2[nH]c(=O)n(Cc3cccc(Cl)c3)c2n1` (stereo not shown) [Example 22, 6-Amino-9-[(3-chlorophenyl)methyl]-2-(propylsulfonimidoyl)-7H-purin-8-one], for which the concentration for a half-maximal effect (EC50) on human TLR7 (setting [2]) was found to be 0.042 µM.
In the case of `CCCS(=N)(=O)c1nc(N)c2[nH]c(=O)n(Cc3ccc(C(F)(F)F)cc3)c2n1` (stereo not shown) [Example 23, 6-Amino-2-(propylsulfonimidoyl)-9-[[4-(trifluoromethyl)phenyl]methyl]-7H-purin-8-one], the EC50 on human TLR7 (setting [2]) is 0.016 µM.
Take `CCCS(=N)(=O)c1nc(N)c2[nH]c(=O)n(Cc3ccc(Br)cc3)c2n1` (stereo not shown) [Example 25, 6-Amino-9-[(4-bromophenyl)methyl]-2-(propylsulfonimidoyl)-7H-purin-8-one]: the EC50 on human TLR7 (setting [2]) turned out to be 0.0096 µM.
Consider `CCCS(=N)(=O)c1nc(N)c2[nH]c(=O)n(Cc3ccc(Cl)c(Cl)c3)c2n1` (stereo not shown) [Example 26, 6-Amino-9-[(3,4-dichlorophenyl)methyl]-2-(propylsulfonimidoyl)-7H-purin-8-one], for which the half-maximal effective concentration (EC50) on human TLR7 (setting [2]) was 0.021 µM.
With `CCCS(=N)(=O)c1nc(N)c2[nH]c(=O)n(Cc3ccc(Cl)c(C)c3)c2n1` (stereo not shown) [Example 28, 6-Amino-9-[(4-chloro-3-methyl-phenyl)methyl]-2-(propylsulfonimidoyl)-7H-purin-8-one], the 50% effective concentration (EC50) on human TLR7 (setting [2]) is 0.021 µM.
For `CCCS(=N)(=O)c1nc(N)c2[nH]c(=O)n(Cc3ccc(C)cc3)c2n1` (stereo not shown) [Example 29, 6-Amino-2-(propylsulfonimidoyl)-9-(p-tolylmethyl)-7H-purin-8-one], the concentration for a half-maximal effect (EC50) at human TLR7 (setting [2]) is 0.027 µM.
Regarding `CCCS(=N)(=O)c1nc(N)c2[nH]c(=O)n(Cc3ccc(Cl)c(F)c3)c2n1` (stereo not shown) [Example 30, 6-Amino-9-[(4-chloro-3-fluorophenyl)methyl]-2-(propylsulfonimidoyl)-7H-purin-8-one], the EC50 on human TLR7 (setting [2]) is 0.018 µM.
Regarding `CCCS(=N)(=O)c1nc(N)c2[nH]c(=O)n(Cc3ccc(F)cc3F)c2n1` (stereo not shown) [Example 31, 6-Amino-9-[(2,4-difluorophenyl)methyl]-2-(propylsulfonimidoyl)-7H-purin-8-one], the half-maximal effective concentration (EC50) on human TLR7 (setting [2]) is 0.04 µM. Further, the “Human Liver Microsome Clearance” value in data set [1] was below 6.15 mL/min/kg.
Regarding `CCCS(=N)(=O)c1nc(N)c2[nH]c(=O)n(Cc3ccc(C)c(Cl)c3)c2n1` (stereo not shown) [Example 36, 6-Amino-9-[(3-chloro-4-methyl-phenyl)methyl]-2-(propylsulfonimidoyl)-7H-purin-8-one], at human TLR7 (setting [2]), the EC50 came out at 0.022 µM.
With `CCCS(=N)(=O)c1nc(N)c2[nH]c(=O)n(Cc3ccc(C(=O)OC)cc3)c2n1` (stereo not shown) [Example 38, Methyl 4-[[6-amino-8-oxo-2-(propylsulfonimidoyl)-7H-purin-9-yl]methyl]benzoate], the EC50 at human TLR7 (setting [2]) turned out to be 0.075 µM.
For the compound `CCCS(=N)(=O)c1nc(N)c2[nH]c(=O)n(Cc3ccc(C(=O)N4CCCCC4)cc3)c2n1` (stereo not shown) [Example 41, 6-Amino-9-[[4-(piperidine-1-carbonyl)phenyl]methyl]-2-(propylsulfonimidoyl)-7H-purin-8-one], at human TLR7 (setting [2]), the half-maximal effective concentration (EC50) came to 0.084 µM.
With `CCCS(=N)(=O)c1nc(N)c2[nH]c(=O)n(Cc3ccc(C(=O)N4CCCC4)cc3)c2n1` (stereo not shown) [Example 42, 6-Amino-2-(propylsulfonimidoyl)-9-[[4-(pyrrolidine-1-carbonyl)phenyl]methyl]-7H-purin-8-one], the EC50 at human TLR7 (setting [2]) was determined as 0.09 µM.
Take `CCS(=N)(=O)c1nc(N)c2[nH]c(=O)n(Cc3ccc(C)cc3)c2n1` (stereo not shown) [Example 71, 6-Amino-2-(ethylsulfonimidoyl)-9-(p-tolylmethyl)-7H-purin-8-one]: the half-maximal effective concentration (EC50) at human TLR7 (setting [2]) stood at 0.098 µM. This compound gave a solubility (thermodynamic) in “LYSA solubility” of 12 µg/mL (≈ 34.6 µM).
